11 compounds from article PMC5587527, “A fragment-based approach leading to the discovery of a novel binding site and the selective CK2 inhibitor CAM4066” (Bioorganic & Medicinal Chemistry, 2017) can be followed below.

Assay [1] deals with T1, CK2α (Homo sapiens, UniProt P68400). The following applies: from ITC Kd.
Assay [2] has as its target T1, CK2α. Put plainly: biochemical. The following applies: read-out: % Inhibition at 500 μM.

T1 sequence (P68400 whole entry): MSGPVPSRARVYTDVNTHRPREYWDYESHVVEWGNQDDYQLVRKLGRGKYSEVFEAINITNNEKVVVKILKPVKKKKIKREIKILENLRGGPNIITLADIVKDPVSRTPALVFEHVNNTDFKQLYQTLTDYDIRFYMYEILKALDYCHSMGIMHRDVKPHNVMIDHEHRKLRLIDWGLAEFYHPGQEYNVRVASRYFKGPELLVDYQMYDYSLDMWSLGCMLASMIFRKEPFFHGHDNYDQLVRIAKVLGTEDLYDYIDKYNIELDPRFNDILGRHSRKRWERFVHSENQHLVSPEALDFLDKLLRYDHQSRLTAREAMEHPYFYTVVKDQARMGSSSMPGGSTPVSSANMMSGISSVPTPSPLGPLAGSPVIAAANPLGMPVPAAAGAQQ

`COC(=O)CC(=O)NCCCNCc1ccc(-c2ccccc2)c(Cl)c1.Cl` [Compound 19] yielded a ligand efficiency on CK2α [1] of 0.23. In addition, the inhibition (usually the drop in the measured response relative to a control, in per cent) at 500 µM at CK2α [2] came out at 46 ± 2%.

On to `CS(=O)(=O)NCCCNCc1ccc(-c2ccccc2)c(Cl)c1` [Compound 18], for which the inhibition at 500 µM on CK2α [2] is 51 ± 10%.

`O=C(O)CC(=O)NCCCNCc1ccc(-c2ccccc2)c(Cl)c1` [Compound 20] displayed a ligand efficiency on CK2α [1] of 0.19. On CK2α [2], the inhibition at 500 µM was found to be 20 ± 4%.

As to `OCCCNCc1ccc(-c2ccccc2)c(Cl)c1` [Compound 13], at CK2α [2], the inhibition at 500 µM was determined as 47 ± 5%.

As to `CC(=O)NCCCNCc1ccc(-c2ccccc2)c(Cl)c1` [Compound 15], the inhibition at 500 µM on CK2α [2] was 39 ± 3%.

In the case of `NC(=O)CCNCc1ccc(-c2ccccc2)c(Cl)c1` [Compound 16], the inhibition at 500 µM on CK2α [2] was found to be 16 ± 6%.

Regarding `NCCCCNCc1ccc(-c2ccccc2)c(Cl)c1` [Compound 14], the inhibition at 500 µM at CK2α [2] is 18 ± 2%.

Consider `CCNCc1ccc(-c2ccccc2)c(Cl)c1` [Compound 11], for which the inhibition at 500 µM at CK2α [2] worked out at 23 ± 6%.

As to `CC(=O)NCCNCc1ccc(-c2ccccc2)c(Cl)c1` [Compound 17], the inhibition at 500 µM on CK2α [2] came out at 12 ± 4%.

Consider `CNCc1ccc(-c2ccccc2)c(Cl)c1` [Compound 10], for which the inhibition at 500 µM on CK2α [2] amounted to 44 ± 12%.

Consider `CCCNCc1ccc(-c2ccccc2)c(Cl)c1` [Compound 12], for which the inhibition at 500 µM at CK2α [2] is 33 ± 5%.
